In article PMC10390520, “Antibody binding of amyloid beta peptide epimers/isomers and ramifications for immunotherapies and drug development” (Scientific Reports, 2023):

System: antibodies 4G8, 6E10, mOC98 and mOC23
Experiment: Immunoprecipitation of Aβ 1–42 peptides with four antibodies, LC-MS/MS detection
Format: binding
Details: Fig. 3B data, corrected with individual MS/MS calibration curves; 11 pmol Aβ peptide, 13.2 pmol antibody in 300 µL IP lysis/wash buffer; Protein A/G plus agarose; LC-MS/MS 903–886 m/z; triplicate
Protocol: Antibody binding efficacy was assessed through an immunoprecipitation procedure, followed by reconstitution in borate buffer and analysis via liquid chromatography tandem mass spectrometry (see Methods). […] Note that these antibodies were developed using the WT (all L) Aβ peptide. Further, the MS/MS detection also was optimized using the WT (all L) Aβ peptide. […] The reduced signal intentensities could be attributed to the altered binding between the antibody and the “aberrant” forms of Aβ, differences in the MS/MS of the “aberrant” Aβ or combinations of these two factors. […]
Purified anti-β-Amyloids 17–24 Antibody (4G8) and 1–16 Antibody (6E10) were purchased from BioLegend (San Diego, CA, USA) while mOC-type antibodies recombinant anti-beta amyloid 1–42 mOC98 and mOC23 were purchased from Abcam (Cambridge, UK). Antibody-antigen binding was measured using Pierce Classic IP Kit by Thermo Fisher Scientific (Waltham, MA, USA). […] Elution buffer was evaporated and samples were reconstituted in 20 µL of 0.1 M borate buffered to pH 9.1 and analyzed by LC–MS/MS. […]
HPLC–MS grade acetonitrile was purchased from Sigma-Aldrich and ultrapure water was obtained from a Milli-Q-water system (Millipore, Bedford, MA, USA). […] WT (all L) Aβ 1–42 and aberrant Aβ 1–42 immunoprecipitated standards were quantitated using the MS/MS transition 903–886 m/z. […]

antibody binding affinity (immunoprecipitation extraction) compared to WT (all L) Aβ: same efficacy
Substance: WT (all L) Aβ: unmodified wild-type all-L amyloid beta 1–42 peptide, purchased from Genscript
